Experimental findings from patent publication US20260356814A1, “INDOLINE DERIVATIVES AS SEROTONERGIC AGENTS USEFUL FOR THE TREATMENT OF DISORDERS RELATED THERETO” (MINDSET PHARMA INC., priority 2022, published 2026) are described below.

The target in assay [1] is T1, human 5-HT1A receptor (Homo sapiens, UniProt P08908).
T1 construct: expressed in transfected cells; host or cells: CHO (HTR1A&Ga15-CHO)
T1 sequence (P08908 1-422): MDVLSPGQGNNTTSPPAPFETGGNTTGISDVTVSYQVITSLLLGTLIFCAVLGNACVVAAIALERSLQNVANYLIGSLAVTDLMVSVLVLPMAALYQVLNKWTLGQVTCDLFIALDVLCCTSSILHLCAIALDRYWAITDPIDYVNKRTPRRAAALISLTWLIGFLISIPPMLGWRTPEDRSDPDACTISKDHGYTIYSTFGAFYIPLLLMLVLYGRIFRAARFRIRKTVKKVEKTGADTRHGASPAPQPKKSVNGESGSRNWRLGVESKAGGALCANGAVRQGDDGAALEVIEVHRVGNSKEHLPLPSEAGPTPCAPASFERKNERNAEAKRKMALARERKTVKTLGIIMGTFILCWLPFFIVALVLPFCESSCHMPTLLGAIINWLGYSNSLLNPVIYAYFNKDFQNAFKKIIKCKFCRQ
As to the kind of experiment: Human 5-HT1A: Functional FLIPR assay (agonist mode). Type of assay: cell-based. The note with it: for RFU@10 μM: @10 μM (head), footnote: curve fitting with activation (%) @ 10 mM with RFU, RFU=Fmax−Fmin; for EC50: FLIPR calcium, agonist mode, HTR1A&Gα15-CHO cells, ND: not detected, read-out: h5-HT1A, EC50. The method, then:
The potential excitatory effects of compounds targeting on 5-hydroxytryptamine receptor 1A (5-HT1A) under agonist mode was assessed.
HTR1A&Ga15-CHO cells were cultured in DMEM/F12 medium containing 10% dialyzed FBS, 1x penicillin-streptomycin and 600 μg/mL Hygromycin B. The cells were passaged about three times a week, maintained between ~30% to ~90% confluence.
• 1. The cell culture medium (DMEM/F12 medium containing 10% dialyzed FBS, 1x penicillin-streptomycin and 600 μg/mL Hygromycin B), TrypLE™ Express and DPBS was warmed to R.T. in advance. • 2. The cell culture medium was removed from flask. Washed cells with DPBS. • 3. 1 mL TrypLE™ Express was added to the flask, mixed well by gentle shaking and cells were incubated at 37° C. for a few minutes. • 4. The cells were checked for morphological change under microscope, the digestion was stopped by adding 2 mL cell culture medium to the flask when most of cells turned to round. • 5. The cell suspension was transferred into a 15 mL centrifuge tube, and then centrifuged at 1,200 rpm for 5 minutes. • 6. The supernatant was removed. The cell pellet were resuspended with 2 mL cell culture medium. • 7. The cell density were counted using cell counter. Only cells with >85% viability were used for the assay. • 8. Cells were diluted to 4×10^5/mL with cell culture medium. • 9. 30 μL/well cell suspensions were added into a 384-well cell plate (The cell density was 12,000 cells/well). • 10. The cell plate was incubated overnight at 37° C., 5% (v/v) CO2.
• 1. On the day of experiments, culture medium was removed from the cell plate. • 2. 10 μL of assay buffer (20 mM HEPES, in 1×HBSS, pH 7.4) was added to each well of the cell plate. • 3. 2× dye solution was prepared following the manufacture's instruction of the FLIPR® Calcium 6 assay kit: • i. The dye was diluted with assay buffer. • ii. probenecid was added to the final concentration of 5 mM. • iii. Vortexed vigorously for 1-2 minutes, adjust pH to 7.4. • 4. 10 μL of 2×dye solution was added to each well of the cell plate. • 5. The cell plate was placed on plate shaker, followed by shaking at 600 rpm for 2 minutes. • 6. The plate was incubated at 37° C. for 2 hours followed by an additional 15-minute incubation at 25° C. 3.4 Prepare 3×compounds. • 1. Serotonin was prepared to the concentration of 10 mM with DMSO, 3-folds serial dilutions were performed with DMSO. • 2. Prepare the test compound to the concentration of 10 mM with DMSO, preform 3-folds serial dilutions with DMSO. • 3. The compounds were added to a 384-well compound source plate. • 4. 90 nL/well of serial diluted compounds were transferred from source plate to a 384-well compound plate by using an Echo. • 5. 30 μL/well of assay buffer was added to the compound plate. • 6. The plate was mixed on-plate shaker for 2 minutes. 3.5 FLIPR assay • 1. After the cells incubate with dye solution, the cell plate, compound plate containing 3×compounds and FLIPR tips were placed into FLIPR. • 2. 10 μL of 3×compounds were transferred from the compound plate to the cell plate by FLIPR. • 3. The plate was read for 160 sec with 1 sec interval to obtain the data of agonist mode.
• 1. The normalized fluorescence reading (RFU) was calculated as shown below, wherein Fmax and Fmin stand for maximum and minimum of calcium signal during defined time window:
RFU=Fmax−Fmin • 2. EC50 was calculated by fitting RFU against log of compound concentrations with Hill equation using XLfit.

Assay [2] concerns the target T1, human 5-HT1A receptor. Put plainly: Human 5-HT1A: Radioligand binding assay ([3H]-8-Hydroxy-DPAT). The note with it: [3H]-8-Hydroxy-DPAT displacement, 27° C., 90 min, pH 7.4; read-out: h5-HT1A, IC50. How it is done:
The objective of this study was to evaluate the binding properties of test compounds on 5-hydroxytryptamine receptor 1A (5-HT1A).
• 1. The assay buffer was prepared following the table below.
• 2. 8 doses of reference and test compounds were prepared starting from 10 mM stock solution as required by 5-fold serial dilutions with 100% (v/v) DMSO. • 3. UniFilter-96 GF/B plate was pretreated: • i. 50 μl/well of 0.5% (v/v) PEI was added to UniFilter-96 GF/B plates. The plates were sealed and incubated at 4° C. for 3 hrs. • ii. After incubation, the plates were washed 3 times with ice-cold wash buffer (50 mM Tris, pH7.4). • 4. Assay plate was prepared: • i. Cell membrane was diluted with assay buffer and 100 μl/well was added to 96 round well plates to reach a concentration of 20 μg/well. • ii. 8 concentrations of reference or test compounds were prepared and 50 μl/well was added to 96 round deep well plates. • iii. [3H]-8-Hydroxy-DPAT was diluted with assay buffer to 2 nM (4X final concentration) and 50 μl/well was added to 96 round well plates. • 5. The plate was centrifuged at 1000 rpm for 30 secs and then agitated at 600 rpm, R.T. for 5 min. • 6. The plates were sealed and the plate was incubated at 27° C. for 90 min. • 7. The incubation was stopped by vacuum filtration onto GF/B filter plates followed by 4 times washing with ice-cold wash buffer (50 mM Tris, pH7.4). • 8. The plates were dried at 37° C. for 45 min. • 9. The filter plates were sealed and 40 μl/well of scintillation cocktail was added. • 10. The plate was read by using a Microbeta2 microplate counter.
• 1. For reference and test compounds, the results were expressed as % Inhibition, using the normalization equation: N=100−100×(U−C2)/(C1−C2), where U is the unknown value, C1 is the average of high controls, and C2 is the average of low controls. • 2. The IC50 was determined by fitting percentage of inhibition as a […] of compound concentrations with Hill equation using XLfit.

For `[2H]C([2H])([2H])Oc1ccc2c(c1)N(C([2H])([2H])[C@H]1CCCN1C([2H])([2H])[2H])CC2` [(R)-I-28, (R)-6-(Methoxy-d3)-1-((1-(methyl-d3)pyrrolidin-2-yl)methyl-d2) indoline], at human 5-HT1A receptor [1], the “RFU@10 μM” value worked out at 1981 RFU and the EC50 was 2340 nM. Also, the concentration for half-maximal inhibition (IC50) at human 5-HT1A receptor [2] is 5.04 nM.

On to `COc1ccc2c(c1)N(C[C@H]1CCCN1)CC2` [(R)-I-59, (R)-6-Methoxy-1-(pyrrolidin-2-ylmethyl) indoline], for which, at human 5-HT1A receptor [1], the “RFU@10 μM” value is reported as 521 RFU. In addition, at human 5-HT1A receptor [2], the IC50 turned out to be 85 nM.

As for `COc1cc2c(cc1OC)N(C[C@H]1CCCN1C)CC2` [(R)-I-34, (R)-5,6-dimethoxy-1-((1-methylpyrrolidin-2-yl)methyl) indoline], the “RFU@10 μM” value on human 5-HT1A receptor [1] amounted to 155 RFU. The IC50 at human 5-HT1A receptor [2] turned out to be 7750 nM.

For `COc1cccc2c1N(C[C@H]1CCCN1C)CC2` [(R)-I-46, (R)-7-Methoxy-1-((1-methylpyrrolidin-2-yl)methyl) indoline], on human 5-HT1A receptor [1], the “RFU@10 μM” value was 373 RFU. Besides, the IC50 on human 5-HT1A receptor [2] is 211 nM.

`[2H]C([2H])([2H])N1CCC[C@@H]1C([2H])([2H])N1CCc2ccccc21` [(R)-I-1, (R)-1-((1-(Methyl-d3)pyrrolidin-2-yl)methyl-d2) indoline]: on human 5-HT1A receptor [1], the “RFU@10 μM” value was determined as 84 RFU. In addition, at human 5-HT1A receptor [2], the 50% inhibitory concentration (IC50) came to 444 nM.

On to `[2H]C([2H])([2H])N(CCN1CCc2ccccc21)C([2H])([2H])[2H]` [Compound I-71, 2-(Indolin-1-yl)-N,N-bis(methyl-d3) ethan-1-amine], for which, at human 5-HT1A receptor [1], the “RFU@10 μM” value came to 145 RFU. Also, the concentration for half-maximal inhibition (IC50) on human 5-HT1A receptor [2] is 1620 nM.

As for `COc1ccc2c(c1)N(C[C@H]1CCCN1C)CC2` [(R)-I-58, (R)-6-Methoxy-1-((1-methylpyrrolidin-2-yl)methyl) indoline], at human 5-HT1A receptor [1], the “RFU@10 μM” value is listed as 2444 RFU and the EC50 came out at 2040 nM. Also, the half-inhibitory concentration (IC50) at human 5-HT1A receptor [2] was found to be 13 nM.

For the molecule `[2H]C([2H])([2H])N(CCN1CCc2ccc(OC)cc21)C([2H])([2H])[2H]` [Compound I-70, 2-(6-Methoxyindolin-1-yl)-N, N-bis(methyl-d3) ethan-1-amine], at human 5-HT1A receptor [1], the “RFU@10 μM” value turned out to be 161 RFU. Also, the IC50 on human 5-HT1A receptor [2] came to 193 nM.

Turning to `[2H]C([2H])([2H])N1CCC[C@@H]1C([2H])([2H])N1CCc2ccc(OC)cc21` [(R)-I-57, (R)-6-Methoxy-1-((1-(methyl-d3)pyrrolidin-2-yl)methyl-d2) indoline], on human 5-HT1A receptor [1], the “RFU@10 μM” value is 2081 RFU and the EC50 was 1260 nM. On human 5-HT1A receptor [2], the IC50 is 10 nM.

Take `COc1cccc2c1CCN2C[C@H]1CCCN1C` [(R)-I-47, (R)-4-Methoxy-1-((1-methylpyrrolidin-2-yl)methyl) indoline]: the “RFU@10 μM” value on human 5-HT1A receptor [1] was found to be 70 RFU. The concentration for half-maximal inhibition (IC50) at human 5-HT1A receptor [2] was determined as 15300 nM.

The EC50 is the concentration that produces a half-maximal response. As a reminder, the IC50 is the concentration that gives 50% inhibition.
